These compounds were tested against T1, Hyaluronidase-1 (Homo sapiens, UniProt Q12794) (assay: Morgan-Elson Assay). Conditions: pH 3.5; 37 °C.
T1 sequence (Q12794 whole entry): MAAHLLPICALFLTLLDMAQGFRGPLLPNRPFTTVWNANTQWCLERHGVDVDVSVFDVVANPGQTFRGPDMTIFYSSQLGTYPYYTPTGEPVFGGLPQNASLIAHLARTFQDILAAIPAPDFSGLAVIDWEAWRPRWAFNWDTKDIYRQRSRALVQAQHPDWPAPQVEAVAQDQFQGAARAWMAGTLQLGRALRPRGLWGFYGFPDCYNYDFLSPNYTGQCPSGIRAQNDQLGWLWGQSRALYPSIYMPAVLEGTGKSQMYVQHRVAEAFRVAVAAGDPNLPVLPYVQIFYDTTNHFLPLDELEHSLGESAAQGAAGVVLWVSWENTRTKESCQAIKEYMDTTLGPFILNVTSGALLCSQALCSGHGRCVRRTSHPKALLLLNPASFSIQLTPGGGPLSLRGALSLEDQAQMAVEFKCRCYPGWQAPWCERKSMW
From the text: Morgan-elson assay were used to test inhibitors at pH of 3.5.

With O=C(NCc1ccccc1)c1cc2ccccc2n1Cc1ccccc1 [N-Substituted indole-2- and 3-carboxamide derivative, 1] as the compound, how does the IC50 read?
Its IC50 is 78.2 µM.

O=C(NCc1ccc(Cl)cc1)c1cc2ccccc2n1Cc1ccccc1 [N-Substituted indole-2- and 3-carboxamide derivative, 2] was tested. Which IC50 did it give?
The IC50 was 64.3 µM.

For O=C(NCc1ccccc1)c1cn(Cc2ccc(F)cc2)c2ccccc12 [N-Substituted indole-2- and 3-carboxamide derivative, 16], which IC50 is on record?
The IC50 was 61.6 µM.

Which IC50 does the source give for O=C(NCc1ccc(Cl)cc1)c1cn(Cc2ccc(F)cc2)c2ccccc12 [N-Substituted indole-2- and 3-carboxamide derivative, 17] here?
Its IC50 is 72.9 µM.

How did the IC50 turn out when O=C(NCc1ccc(F)cc1)c1cn(Cc2ccc(F)cc2)c2ccccc12 [N-Substituted indole-2- and 3-carboxamide derivative, 18] was run?
The IC50 was 56.7 µM.

Each compound was assayed against T1, Hyaluronidase-1 (assay: Stains-all Assay). Conditions: pH 7; 37 °C.
From the text: Stains-all assay were used to test inhibitors at pH of 7.

For O=C(NCc1ccccc1)c1cc2ccccc2n1Cc1ccccc1 [N-Substituted indole-2- and 3-carboxamide derivative, 1], which IC50 is on record?
Its IC50 is 40.3 µM.

With O=C(NCc1ccc(Cl)cc1)c1cc2ccccc2n1Cc1ccccc1 [N-Substituted indole-2- and 3-carboxamide derivative, 2] as the compound, how does the IC50 read?
The IC50 was 33.2 µM.

For O=C(NCc1ccc(F)cc1)c1cc2ccccc2n1Cc1ccccc1 [N-Substituted indole-2- and 3-carboxamide derivative, 3], which IC50 is on record?
Its IC50 is 27.2 µM.

Which IC50 does the source give for O=C(NCc1ccccc1)c1cc2ccccc2n1Cc1ccc(F)cc1 [N-Substituted indole-2- and 3-carboxamide derivative, 6] here?
Its IC50 is 41.1 µM.

O=C(NCc1ccc(Cl)cc1)c1cc2ccccc2n1Cc1ccc(F)cc1 [N-Substituted indole-2- and 3-carboxamide derivative, 7] was tested. Which IC50 did it give?
Its IC50 is 33 µM.

How did the IC50 turn out when O=C(NCc1ccc(F)cc1)c1cc2ccccc2n1Cc1ccc(F)cc1 [N-Substituted indole-2- and 3-carboxamide derivative, 8] was run?
The IC50 was 29.9 µM.

How did the IC50 turn out when O=C(NCc1ccccc1)c1cn(Cc2ccc(F)cc2)c2ccccc12 [N-Substituted indole-2- and 3-carboxamide derivative, 16] was run?
Its IC50 is 33 µM.

With O=C(NCc1ccc(Cl)cc1)c1cn(Cc2ccc(F)cc2)c2ccccc12 [N-Substituted indole-2- and 3-carboxamide derivative, 17] as the compound, how does the IC50 read?
The IC50 was 33.7 µM.

For O=C(NCc1ccc(F)cc1)c1cn(Cc2ccc(F)cc2)c2ccccc12 [N-Substituted indole-2- and 3-carboxamide derivative, 18], which IC50 is on record?
The IC50 was 25.7 µM.

From BindingDB's records for doi:10.1111/j.1747-0285.2007.00590.x (2007)
